Experimental data from US20110306638A1, “BENZISOXAZOLE PIPERIDINYL DERIVATIVES, PHARMACEUTICAL COMPOSITIONS COMPRISING THE DERIVATIVES AND THEIR USE” (NHWA PHARMA. CORPORATION, priority 2008, published 2011).
Read-outs that look alike come from different tables or passages of the source. Marks after values point to notes of the source that are not given here.

Experiments:
Kunming mice [1] = test: Acetic acid-induced abdominal writhing test in mice; type: in vivo
Experimental: Kunming mice, SPF KM mice purchased from […] SLAC LABORATORY ANIMAL CO. LTD and kept in normal environment.
The compounds were dissolved in water for injection at a concentration of 4 mg/ml, 2 mg/ml and 1 mg/ml and were given intragastrically to animals.
(§1) Three different doses (10, 20, and 40 mg/kg) were administered to the test groups.
Aspirin was used as a positive control and acetic acid writhing test was used.
30 mice (half male and half female) weighing 18-23 g were divided into five groups, including negative control group, positive control group, low dose group, medium dose group and high dose group:
Mice in test group received test drug (10 mg/kg, 20 mg/kg, 40 mg/kg) via intragastric administration. Negative control group received physiological saline (20 ml/kg) via oral administration. Positive control group received aspirin (200 mg/kg) via oral administration. One hour later, each group received 0.7% acetic acid 10 ml/kg intraperitoneally. Five minutes later, the number of writhes was counted within the subsequent 15 min period; inhibition percentage of writhing response in each test group was calculated by the following equation: […]

5-HT2A receptor = target: T1, 5-HT2A receptor (Homo sapiens, UniProt P28223); test: In-vitro competitive binding to 5-HT2A receptor, [3H]-Ketanserin, transformed HEK293 cells; details: for inhibition at 10 µM: read-out: 5-HT2A [3H]-Ketanserin inhibition percentage; for IC50 / Ki: affinity to 5-HT2A receptor, concentration gradient test; for inhibitory activity on 5-HT2A (in words): compared with Aripiprazole
T1 construct: expressed in transfected cells; host or cells: HEK293
T1 sequence (P28223 whole entry): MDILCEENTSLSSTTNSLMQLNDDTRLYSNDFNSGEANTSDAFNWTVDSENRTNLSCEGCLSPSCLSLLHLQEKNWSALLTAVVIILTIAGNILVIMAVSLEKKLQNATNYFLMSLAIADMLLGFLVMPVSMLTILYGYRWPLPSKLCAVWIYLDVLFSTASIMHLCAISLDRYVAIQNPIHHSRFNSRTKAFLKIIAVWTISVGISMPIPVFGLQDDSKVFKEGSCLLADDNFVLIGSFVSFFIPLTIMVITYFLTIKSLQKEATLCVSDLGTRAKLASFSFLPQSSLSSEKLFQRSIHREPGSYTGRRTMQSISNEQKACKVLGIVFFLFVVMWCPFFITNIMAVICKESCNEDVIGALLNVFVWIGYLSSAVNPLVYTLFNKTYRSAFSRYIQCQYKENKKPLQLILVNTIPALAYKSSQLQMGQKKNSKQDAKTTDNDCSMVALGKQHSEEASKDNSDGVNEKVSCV
Experimental: All test samples were dissolved in DMSO at a concentration of 0.01 mol/L, and then diluted with deionized water to 100 umol/L.
HEK293 cells were transformed with plasmid carriers containing the gene coding for 5-HT2A receptor protein by using calcium phosphate transformation. Stable cell strains which could stably express 5-HT2A receptor protein were obtained from the transformed cells by cultivating in a culture media containing G418, selecting monoclones of the cell and performing radioactive ligand binding assay.
Beckman LS 6500 Scintillation Counter.
HEK-293 cells were infected with recombined viruses containing various genes described above. […] Cells were centrifuged at 1000 rpm for 5 min Culture media was discarded, and cell bodies were collected and stored at −20° C. in a freezer. The cell bodies were resuspended with Tris-HCl reaction buffer during assay.
After incubation at 37° C. for 15 min, the reaction mixture was immediately transferred into ice bath to terminate the reaction; the reaction mixture was quickly filtered through GF/C glass cellulose filter on a Millipore cell sample collector, and was then washed with eluting solution (50 mM Tris-HCl, PH 7.7, 3 ml×3) and dried in a microwave for 8-9 min. The filter was transferred into a 0.5 ml centrifuge tube, and 500 μl lipid soluble scintillation fluid was added. The centrifuge tube was allowed to stand in darkness for more than 30 min. Radioactivity was determined by counting Inhibition percentage of each compound on isotope ligand binding was calculated according to the following equation:
inhibition percentage(I %)=cpm of overall binding tube−cpm of compound/cpm of overall binding tube−cpm of nonspecific binding tube×100%.
Each compound was tested in two duplicate test tubes and two separate tests were performed.

mice = test: Sedative effects in mice (spontaneous activities); type: in vivo; design: unit not given here; details: single dose 20 mg/kg
Experimental: Spontaneous activities of the mice were recorded by alternating current tube, Sedative effects were tested after single dose (20 mg/kg).

[2] = target: T2, 5-HT reuptake by brain synapses (Rattus norvegicus, UniProt P31652); test: [3H]5-HT reuptake test in rat brain synapses; type: biochemical; details: for inhibitory activity on 5-HT reuptake (in words): at 10 μmol/L, compared with Dutoxetine; for inhibition at 10 µM: final concentration 10 umol/L, rat brain synapses, read-out: 5-HTU [3H] 5-HT reuptake inhibition percentage Mean
T2 construct: forehead cortex was obtained for [^3H]5-HT, [^3H]NA reuptake test; from tissue; host or cells: rat (SD) forebrain cortex synaptosomes
T2 sequence (P31652 whole entry): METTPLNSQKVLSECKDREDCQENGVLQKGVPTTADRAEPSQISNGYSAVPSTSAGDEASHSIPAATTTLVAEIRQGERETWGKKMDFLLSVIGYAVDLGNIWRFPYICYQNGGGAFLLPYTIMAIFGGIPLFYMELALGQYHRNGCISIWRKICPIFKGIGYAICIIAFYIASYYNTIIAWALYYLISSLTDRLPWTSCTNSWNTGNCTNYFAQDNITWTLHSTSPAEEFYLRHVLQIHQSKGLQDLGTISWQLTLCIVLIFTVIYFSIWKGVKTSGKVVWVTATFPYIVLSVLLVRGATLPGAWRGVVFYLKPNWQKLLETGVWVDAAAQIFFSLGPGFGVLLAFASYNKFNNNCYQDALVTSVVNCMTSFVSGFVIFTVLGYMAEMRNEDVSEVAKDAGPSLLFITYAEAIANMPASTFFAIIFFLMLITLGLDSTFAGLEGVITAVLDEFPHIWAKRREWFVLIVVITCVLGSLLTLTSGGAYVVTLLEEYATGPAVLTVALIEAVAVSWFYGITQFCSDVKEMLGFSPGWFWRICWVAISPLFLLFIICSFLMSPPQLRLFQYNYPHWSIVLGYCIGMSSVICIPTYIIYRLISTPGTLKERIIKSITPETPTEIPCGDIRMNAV
Experimental: The method was as follows:
Male SD rats were killed by cervical dislocation, heads were immediately cut and brains were obtained and put on ice, related brain tissues were dissected (forehead cortex was obtained for [^3H]5-HT, [^3H]NA reuptake test, corpus striatum was obtained for [^3H]DA reuptake).
After the sample was weighed, 10 folds (V/W) ice cold 0.32 mol/L sucrose solution was added.
According to [a. […] 5-HT was added and after incubation in water bath at 37° C. for 10 min, the reaction mixture was immediately taken out of the water bath and 2 ml ice cold 150 mmol/L Tris-HCl was added to terminate the reaction. The sample was collected on a round glass fiber filter by vacuum filtration and washed three times with 3 ml ice cold Tris-HCl buffer. The filter membrane was removed, dried in a far-infrared oven for 15 min, then transferred into a EP tube, in which 1.5 ml scintillation fluid was added, left overnight and detected by a scintillation counter. The test sample was not added into solvent controlled overall binding tube or non-specific binding tube. 50 μl solvent was added into the overall binding tube, and in [^3H] 5-HT reuptake test, 600 μmol/L cocaine was added into the non-specific binding tube.

Kunming mice [3] = test: Hot-plate test in mice; type: in vivo; details: 1 h post dose
Experimental: Kunming mice, SPF KM mice were purchased from […] SLAC LABORATORY ANIMAL CO. LTD and kept in normal environment.
The compounds were dissolved in water for injection at a concentration of 4 mg/ml, 2 mg/ml and 1 mg/ml and were given subcutaneously to animals.
as §1
Morphine was used as a positive control and hot plate test was used.
30-40 mice (half male and half female) weighed from 18 to 23 gram were used. First, each mouse was placed on a hot plat at 55° C. to determine basic pain threshold for 2-3 times. Those animals with basic pain threshold of 5-30 s were qualified, unqualified mice were not used. 30 qualified mice were divided into five groups, including negative control group, positive control group, low-dose group, medium-dose group and high-dose group:
Mice in test groups received test sample solution (10 mg/kg, 20 mg/kg, 40 mg/kg) via subcutaneous injection in the neck. Positive control group received subcutaneous injection of morphine (2 mg/kg). One hour later, pain threshold values were determined for mice in each group as post-drug pain threshold. Percentage increase in pain threshold was calculated according to the following equation: […]

[4] = 10 mg/kg intragastric administration
[5] = 20 mg/kg intragastric administration
[6] = 40 mg/kg intragastric administration

Q: For `CC(=O)Oc1ccccc1C(=O)O` [Aspirin, reference compound], which “Inhibition percentage of writhing response” value (“Inhibition percentage” for short) (Kunming mice [1]; positive control, 200 mg/kg oral, 1 h before acetic acid) is on record?
A: 95.05** %

Q: Which inhibition at 10 µM (5-HT2A receptor) does the source give for `Fc1ccc2c(C3CCN(CCn4ccc5ccccc54)CC3)noc2c1` [II-1, 3-(1-(2-(1H-indol-1-yl)ethyl)piperidin-4-yl)-6-fluorobenzo[d]isoxazole] here?
A: 99.5%

Q: What about the Sedative effect (mice) of the same molecule?
A: 43*

Q: With `Fc1ccc2c(C3CCN(CCCn4ccc5ccccc54)CC3)noc2c1` [II-2, 3-(1-(3-(1H-indol-1-yl)propyl)piperidin-4-yl)-6-fluorobenzo[d]isoxazole] as the molecule, how does the Sedative effect (mice) read?
A: 44*

Q: How did the IC50 (5-HT2A receptor) turn out when `Fc1ccc2c(C3CCN(CCCCn4ccc5ccccc54)CC3)noc2c1` [II-3, 3-(1-(4-(1H-indol-1-yl)butyl)piperidin-4-yl)-6-fluorobenzo[d]isoxazole] was run?
A: 1.66 nM

Q: And the Ki (5-HT2A receptor)?
A: 1.12 nM

Q: And the “inhibitory activity on 5-HT2A (in words)” value (5-HT2A receptor)?
A: potent inhibitory activities

Q: What about the inhibition at 10 µM (5-HT2A receptor; final concentration 10 umol/L) of the same molecule?
A: 100%

Q: What about the “inhibitory activity on 5-HT reuptake (in words)” value [2] of the same molecule?
A: potent inhibitory activities

Q: And the inhibition at 10 µM [2]?
A: 95.9%

Q: What about the “Inhibition percentage” value (Kunming mice [1]; [4]) of the same molecule?
A: 98.65** %

Q: And the “Inhibition percentage” value (Kunming mice [1]; [5])?
A: 100.0** %

Q: What about the “Inhibition percentage” value (Kunming mice [1]; [6]) of the same molecule?
A: 100.0** %

Q: What about the “Percentage increase in pain threshold” value (Kunming mice [3]; 10 mg/kg S.c.) of the same molecule?
A: 95.48* %

Q: What about the “Percentage increase in pain threshold” value (Kunming mice [3]; 20 mg/kg S.c.) of the same molecule?
A: 194** %

Q: And the “Percentage increase in pain threshold” value (Kunming mice [3]; 40 mg/kg S.c.)?
A: 133%

Q: What about the Sedative effect (mice) of the same molecule?
A: 35

Q: What does the source list for `Fc1ccc2c(C3CCN(CCCCCn4ccc5ccccc54)CC3)noc2c1` [II-4, 3-(1-(5-(1H-indol-1-yl)pentyl)piperidin-4-yl)-6-fluorobenzo[d]isoxazole]?
A: inhibition at 10 µM (5-HT2A receptor): 99.9%; Sedative effect (mice): 91**

Q: How did the Sedative effect (mice) turn out when `Fc1ccc2c(C3CCN(CCCn4ccc5ccc(F)cc54)CC3)noc2c1` [II-5, 6-fluoro-3-(1-(3-(6-fluoro-1H-indol-1-yl)propyl)piperidin-4-yl)benzo[d]isoxazole] was run?
A: 65*

Q: Which results are given for `N#Cc1ccc2ccn(CCCN3CCC(c4noc5cc(F)ccc45)CC3)c2c1` [II-6, 1-(3-(4-(6-fluorobenzo[d]isoxazol-3-yl)piperidin-1-yl)propyl)-1H-indole-6-carbonitrile]?
A: IC50 (5-HT2A receptor): 4.78 nM; Ki (5-HT2A receptor): 3.22 nM; inhibitory activity on 5-HT2A (in words) (5-HT2A receptor): potent inhibitory activities; inhibition at 10 µM (5-HT2A receptor; final concentration 10 umol/L): 100%; inhibitory activity on 5-HT reuptake (in words) [2]: potent inhibitory activities; inhibition at 10 µM [2]: 96.7%; Inhibition percentage of writhing response (Kunming mice [1]; [4]): 74.09* %; Inhibition percentage of writhing response (Kunming mice [1]; [5]): 69.55%; Inhibition percentage of writhing response (Kunming mice [1]; [6]): 100.0** %; Percentage increase in pain threshold (Kunming mice [3]; 10 mg/kg S.c.): 41.11%; Percentage increase in pain threshold (Kunming mice [3]; 20 mg/kg S.c.): 73.68* %; Percentage increase in pain threshold (Kunming mice [3]; 40 mg/kg S.c.): 72.38* %; Sedative effect (mice): 75**

Q: Which Sedative effect (mice) does the source give for `COC(=O)c1ccc2ccn(CCCN3CCC(c4noc5cc(F)ccc45)CC3)c2c1` [II-7, methyl 1-(3-(4-(6-fluorobenzo[d]isoxazol-3-yl)piperidin-1-yl)propyl)-1H-indole-6-carboxylate] here?
A: 96**

Q: What does the source list for `Fc1ccc2c(C3CCN(CCCCn4ccc5ccc(F)cc54)CC3)noc2c1` [II-8, 6-fluoro-3-(1-(4-(6-fluoro-1H-indol-1-yl)butyl)piperidin-4-yl)benzo[d]isoxazole]?
A: IC50 (5-HT2A receptor): 5.33 nM; Ki (5-HT2A receptor): 2.79 nM; inhibitory activity on 5-HT2A (in words) (5-HT2A receptor): potent inhibitory activities; inhibition at 10 µM (5-HT2A receptor; final concentration 10 umol/L): 100%; inhibitory activity on 5-HT reuptake (in words) [2]: potent inhibitory activities; inhibition at 10 µM [2]: 107%; Inhibition percentage of writhing response (Kunming mice [1]; [4]): 95.88* %; Inhibition percentage of writhing response (Kunming mice [1]; [5]): 96.46** %; Inhibition percentage of writhing response (Kunming mice [1]; [6]): 100.0** %; Percentage increase in pain threshold (Kunming mice [3]; 10 mg/kg S.c.): 97.49%; Percentage increase in pain threshold (Kunming mice [3]; 20 mg/kg S.c.): 160.50** %; Percentage increase in pain threshold (Kunming mice [3]; 40 mg/kg S.c.): 172.81* %; Sedative effect (mice): 42*

Q: For `Fc1ccc2c(C3CCN(CCCCn4ccc5ccc(Cl)cc54)CC3)noc2c1` [II-10, 3-(1-(4-(6-chloro-1H-indol-1-yl)butyl)piperidin-4-yl)-6-fluorobenzo[d]isoxazole], which Sedative effect (mice) is on record?
A: 99**

Q: Which inhibition at 10 µM (5-HT2A receptor) does the source give for `Fc1ccc2c(C3CCN(CCCn4cnc5ccccc54)CC3)noc2c1` [II-11, 3-(1-(3-(1H-benzo[d]imidazol-1-yl)propyl)piperidin-4-yl)-6-fluorobenzo[d]isoxazole] here?
A: 99.6%

Q: And the Sedative effect (mice)?
A: 0

Q: `Fc1ccc2c(C3CCN(CCCCn4cnc5ccccc54)CC3)noc2c1` [II-12, 3-(1-(4-(1H-benzo[d]imidazol-1-yl)butyl)piperidin-4-yl)-6-fluorobenzo[d]isoxazole] was tested. Which inhibition at 10 µM (5-HT2A receptor) did it give?
A: 99.5%

Q: And the Sedative effect (mice)?
A: 52*

Q: Which Sedative effect (mice) does the source give for `Fc1ccc2c(C3CCN(CCCn4ncc5ccccc54)CC3)noc2c1` [II-13, 3-(1-(3-(1H-indazol-1-yl)propyl)piperidin-4-yl)-6-fluorobenzo[d]isoxazole] here?
A: 66*

Q: With `Fc1ccc2c(C3CCN(CCCn4cnc5ccc(F)cc54)CC3)noc2c1` [III-1, 6-fluoro-3-(1-(3-(6-fluoro-1H-benzo[d]imidazol-1-yl)propyl)piperidin-4-yl)benzo[d]isoxazole] as the molecule, how does the Sedative effect (mice) read?
A: 54*

Q: How did the Sedative effect (mice) turn out when `N#Cc1ccc2ncn(CCCCN3CCC(c4noc5cc(F)ccc45)CC3)c2c1` [III-3, 1-(4-(4-(6-fluorobenzo[d]isoxazol-3-yl)piperidin-1-yl)butyl)-1H-benzo[d]imidazole-6-carbonitrile] was run?
A: 52*

Q: How did the Sedative effect (mice) turn out when `N#Cc1ccc2ccn(OCCN3CCC(c4noc5cc(F)ccc45)CC3)c2c1` [IV-1, 1-(2-(4-(6-fluorobenzo[d]isoxazol-3-yl)piperidin-1-yl)ethoxy)-1H-indole-6-carbonitrile] was run?
A: 20

Q: Which Sedative effect (mice) does the source give for `N#Cc1ccc2ccn(OCCCN3CCC(c4noc5cc(F)ccc45)CC3)c2c1` [IV-2, 1-(3-(4-(6-fluorobenzo[d]isoxazol-3-yl)piperidin-1-yl)propoxy)-1H-indole-6-carbonitrile] here?
A: 52*

Q: With `Fc1ccc2c(C3CCN(CCOn4nnc5ccc(Cl)cc54)CC3)noc2c1` [IV-3, 3-(1-(2-(6-chloro-1H-benzo[d][1,2,3]triazol-1-yloxy)ethyl)piperidin-4-yl)-6-fluorobenzo[d]isoxazole] as the molecule, how does the inhibition at 10 µM (5-HT2A receptor) read?
A: 92.8%

Q: And the Sedative effect (mice)?
A: 67*

Q: With `CN1CC[C@]23c4c5ccc(O)c4O[C@H]2[C@@H](O)C=C[C@H]3[C@H]1C5` [Morphine, reference compound] as the molecule, how does the “Percentage increase in pain threshold” value (Kunming mice [3]; positive control, 2 mg/kg S.c., hot plate 55° C.) read?
A: 202.5** %
